Source: US20180267043A1, “USE OF BIOMARKERS FOR PREDICTING CLINICAL SENSITIVITY TO CANCER TREATMENT” (CELGENE CORPORATION, priority 2014, published 2018)

Key:
[1] = test system: CRBN and its substrates IKZF1, GSPT1, GSPT2; experiment: In vitro binding assay, anti-HA immunoprecipitation and immunoblotting; conditions: cell lysates
Description: CRBN−/− cells expressing HA-tagged substrates were lysed and incubated with anti-HA antibody to pull down substrates. CRBN positive cells expressing shGSPT1 that specifically knocks down GSPT1 were lysed, then mixed with the substrates obtained from CRBN−/− cells. The mixture was incubated with DMSO alone or compounds. Immunoprecipitation using anti-HA antibody was performed. Then, immunoblotting was performed using anti-CRBN or anti-HA antibodies.

XBP1 and ATF6 pathways = experiment: RNA level of XBP1 and ATF6 pathway components in 293FT HEK cells; format: cell-based, human; conditions: 1 nM or 10 nM, 24 hours
Description: The mechanism of Compound C-activated XBP1 and ATF6 pathways was studied in 293FT HEK cells. Parental cells, CRBN−/− cells, cells expressing control shRNA, or cells expressing GSPT1-specific shRNA were treated with DMSO, 1 nM, or 10 nM Compound C. The RNA level of variant cellular components along the XBP1 and ATF6 pathways was measured and normalized with GAPDH at 24 hours after treatment.

[2] = test system: GSPT1, BIP, ER stress or apoptosis pathways; experiment: Expression level of ER stress and apoptosis components in 293FT HEK cells; format: cell-based, human; conditions: 20 hours
Description: CRBN+/+ and CRBN−/− cells were treated with DMSO alone, 1 nM, or 10 nM Compound C. After 20 hours, the expression level of various cellular components along the endoplasmic reticulum (ER) stress or apoptosis pathways was measured. […] BIP is an ER luminal KDEL protein that requires binding with KDEL receptor in the cis-Golgi to be retro-transported into the ER lumen for retention. Loss of GSPT1 leads to the inactivation of the eRF1/GSPT1 complex and therefore allows translation readthrough of de novo sysnthesized proteins such as BIP. Addition of extra residues to the BIP C-terminus blocks the recognization of KDEL motif and BIP C-terminal epitopes by the KDEL receptor and BIP C-terminal antibodies, respectively. […] BIP interacts with the ER luminal domain of UPR sensors PERK, IRE1, and ATF6 to prevent their activation. Reduction of BIP C-terminal immunoreactivity indicates a mislocalization of BIP, which presumably leads to its dissociation from PERK, IRE1, and ATF6 and induces UPR.

[3] = test system: GSPT1, IKZF1, IKZF3, UPR or apoptosis pathways; experiment: Protein level of UPR and apoptosis components in DF15 cells; format: cell-based, human; conditions: DF15, 20 nM, 5 or 10 hours
Description: (§1) Cells were treated with DMSO alone or 20 nM Compound C. After 5 or 10 hours, the expression level of various cellular components along UPR or apoptosis pathways was measured. […] Loss of BIP immunoreactivity indicates an induction of UPR.

PERK/EIF2a/ATF4 pathway = experiment: mRNA expression of PERK/EIF2a/ATF4 pathway components in DF15 MM cells; format: cell-based, human; conditions: 20 nM
Description: as §1

[4] = test system: GSPT1, UPR or apoptosis pathways; experiment: Protein level of UPR and apoptosis components in KG1 cells; format: cell-based, human
Description: Cells were treated with DMSO alone or 20 nM Compound C. The expression levels of various cellular components along UPR or apoptosis pathways were measured at various time points post treatment.

[5] = 293FT parental and control shRNA cells

## Cc1ccc(NC(=O)NCc2ccc3c(c2)CN(C2CCC(=O)NC2=O)C3=O)cc1Cl (stereo not drawn) [Compound C, 1-(3-chloro-4-methylphenyl)-3-((2-(2,6-dioxopiperidin-3-yl)-1-oxoisoindolin-5-yl)methyl)urea]
[1]
  Interaction between CRBN and GSPT1 or GSPT2: promotes the interaction
  Interaction between CRBN and IKZF1: promotes the interaction
XBP1 and ATF6 pathways; [5]
  RNA level of ATF6 pathway components (XBP1, EDEM1, EDEM2, HYOU1, HSPA5): induces expression
  RNA level of XBP1 pathway components (SEC24D, DNAJB9, DNAJC6, XBP1, EDEM1, EDEM2, HYOU1): induces expression
XBP1 and ATF6 pathways; cells with GSPT1 knockdown
  RNA level of XBP1 and ATF6 pathway components: This induction effect increases
[2]; 293FT CRBN+/+ cells, 1 nM or 10 nM
  Degradation of GSPT1: induces degradation of GSPT1 in CRBN+/+ cells
[2]; 293FT HEK cells
  Cellular components in acute apoptotic cell death: are not affected
[2]; 293FT, 1 nM or 10 nM
  Immunoreactivity of BIP antibody that binds to BIP amino-terminal region: is not affected
[2]; 293FT, 1 nM or 10 nM, dose dependent
  Immunoreactivity of KDEL antibody and BIP carboxyl-terminus (BIP-CT) antibody: dramatically decreased
[3]
  Degradation of GSPT1, IKZF1, and IKZF3: induces degradation of GSPT1, IKZF1, and IKZF3
  Immunoreactivity of antibodies recognizing KDEL motif and BIP C-terminal epitope: loss of immunoreactivity
  Level of pEIF2α, ATF4, ATF3, DDIT3, cleaved caspase 3, and cleaved PARP: increases the level
PERK/EIF2a/ATF4 pathway
  Expression of ATF4, ATF3, DDIT3, PPP1R15A, and GADD45A (FIG. 16C): Compound C-induced expression of ATF4, ATF3, DDIT3, PPP1R15A, and GADD45A
[4]; KG1 (FIG. 18B)
  Levels of Mcl-1 and pS112-BAD: decrease in response to Compound C treatment
  Levels of cleaved Caspase-8, BID, cleaved Caspase-9, cleaved Caspase-3, cleaved Caspase-7, and cleaved PARP: increase in response to Compound C treatment
[4]; KG1, 20 nM
  Degradation of GSPT1: induced degradation of GSPT1
  Expression of ATF-4 and ATF-3: increased the expression of ATF-4 and its downstream target ATF-3
  Levels of pEIF2α, DDIT3, cleaved Caspase-3, and cleaved PARP: also increased
